“And” between values parts separate entries of the source, which are not always exact repeats. Equal entries are not always repeated. “Also recorded” adds a separate entry of the source. Where two headings read alike, the source gives them in different places. Starred links: 1 amine or outer side, 2 acyl side, 3 side chain; linkers in the order of their positions; H or OH if unused. Positions of bridges follow the written chain, without caps; N, C: chain ends. Residues, ends and D or L forms follow the SMILES beside them. No end group written: not given here. Cysteamide = C(CS[*:3])N[*:1]
What was measured:
[1] = target: T1, recombinant human thymidylate synthase (hTS) (Homo sapiens, UniProt P04818); assay: hTS inhibition assay (spectrophotometric, absorbance at 340 nm); type: biochemical; details: for IC50: room temperature (20–22 °C) under stirring, standard error ±20% of the value; for % inhibition of hTS: at 500 µM and 37 °C under stirring
T1 construct: made in house

IGROV-1 cells = assay: Cytotoxicity, crystal violet cell growth assay, peptides transfected with SAINT-PhD; type: cell-based, human; details: at 10 and 25 µM, ranking among the 10 cPs, SAINT-PhD delivery
Procedure: (§1) The IGROV-1, A2780, and A2780/CP human ovarian cancer cell lines were grown as monolayer in RPMI 1640 medium containing 10% heat-inactivated fetal bovine serum and 50 µg/mL gentamycin sulfate (Euroclone, Devon, UK). Cultures were equilibrated with humidified 5% CO2 in air at 37 °C. The cDDP-resistant variant A2780/CP cell line, derived from the parent A2780 cell line, is about 10-fold resistant to cDDP and was developed by monthly exposure to cDDP, followed by chronic exposure to stepwise increases in cDDP concentration. All studies were performed in Mycoplasma negative cells, as routinely determined with the MycoAlert Mycoplasma detection kit (Lonza, Walkersville, MD, USA).
(§2) Treatment with each peptide was performed according to the standard transfection protocol of the SAINT-PhD delivery system (Synvolux Therapeutics, Leiden, Netherlands). Complexes of peptide (µg) with SAINT-PhD (µL) were prepared at appropriate ratios corresponding to the approximate µM concentrations indicated. For each protein sample, complexes were prepared as follows: for the treatment of a 24-well plate, the appropriate amount of each peptide was diluted in HBS, then SAINT-PhD was pipetted into the solution without vortexing; then, the mixture was incubated for 5 min at room temperature, and filled up to 500 µL with serum-free medium. The culture medium was aspirated from the cells, the SAINT-PhD/peptide complex was added to the wells and incubated 4 h (37 °C, 5% CO2). Afterward, complete RPMI was added to reach the appropriate volume for maintaining the cell culture for the duration of the experiments.
(§3) Cell growth was determined using a modified crystal violet assay. On selected days, the tissue culture medium was removed, and the cell monolayer fixed with methanol and stained with 0.2% crystal violet solution in 20% methanol for at least 30 min. After being washed several times with distilled water to remove excess dye, the cells were left to dry. The incorporated dye was solubilized in acidified isopropanol (1N HCl: 2-propanol, 1:10). After appropriate dilution, absorbance was determined spectrophotometrically at 540 nm. The extracted dye was proportional to cell biomass. The percentage of cytotoxicity was calculated by comparing the absorbance of cultures exposed to the drug to unexposed (control) cultures.

[2] = target: T1, recombinant human thymidylate synthase (hTS); assay: hTS inhibition assay (spectrophotometric, absorbance at 340 nm); type: biochemical; details: for inhibition at 500 µM / % inhibition of hTS: at 500 µM and r.t.
Procedure: hTS was purified as previously reported. The enzyme solution was thawed the day of the experiment and the enzyme concentration was determined by UV−Vis spectroscopy (Varian Cary 100, Agilent, Santa Clara, CA, USA) using ε280 = 89000 M^−1 cm^−1 and Mr = 74 229. The thawed protein solution was kept constantly at 4 °C. In this condition, the enzyme was able to reproduce normal kinetic activity values (KM dUMP = 10−12 μM, KM mTHF = 4−6 μM, kcat = 0.8−0.9 s^−1). The peptide solution was mixed or vortexed in order to help solubilization; the precise concentration was determined through UV−Vis spectroscopy. A stock solution of mTHF was prepared in carbonate buffer. The stock was prepared in the range of 5 to 6 mM. A stock solution of dUMP was prepared in bidistilled water in the range of 10−12 mM. Peptide inhibitors were tested without incubation with hTS in […], at 25 °C. A 1 mL amount of assay buffer consisted of 50 mM TES, pH 7.4, containing 25 mM MgCl2, 6.5 mM HCHO, 1 mM EDTA, 75 mM β-mercaptoethanol (β-ME), 0.120 mM dUMP, and 0.060 mM mTHF. Following the addition of the enzyme (300 nM) and inhibitor mixture, the absorbance was monitored at 340 nm in a UV−Vis spectrophotometer for 3 min. In the control sample, an equal aliquot of enzyme alone was added. hTS activity inhibition percentages (I%) values were measured at 0.100−3000 µM concentration of inhibitor. […] The kinetic inhibition pattern was studied for compound 7 [12]. The inhibition values are expressed as mean ± SEM; n = 3.

A2780 cells = assay: Cytotoxicity, crystal violet cell growth assay, peptides transfected with SAINT-PhD; type: cell-based, human; details: SAINT-PhD delivery
Procedure: as §1, §2, §3

A2780/CP cells = assay: as above; type: cell-based, human; details: SAINT-PhD delivery
Procedure: as §1, §2, §3

[3] = target: T1, recombinant human thymidylate synthase (hTS); details: at 100 µM; ref [20]; cited from earlier work

T1 sequence (P04818 whole entry): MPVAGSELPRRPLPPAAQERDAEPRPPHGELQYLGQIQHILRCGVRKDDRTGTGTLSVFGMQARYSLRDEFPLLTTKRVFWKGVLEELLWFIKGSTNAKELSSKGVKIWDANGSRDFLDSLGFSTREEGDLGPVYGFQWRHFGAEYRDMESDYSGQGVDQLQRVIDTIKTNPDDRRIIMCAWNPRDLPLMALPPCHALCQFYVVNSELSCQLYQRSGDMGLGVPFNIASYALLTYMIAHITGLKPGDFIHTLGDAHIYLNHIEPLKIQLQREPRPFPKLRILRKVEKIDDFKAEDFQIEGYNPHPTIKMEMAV

Question: Which IC50 [1] does the source give for `CC(C)C[C@@H]1NC(=O)[C@H](CCC(N)=O)NC(=O)[C@@H]2CCCN2C(=O)[C@@H](NC(=O)[C@@H](N)CC(C)C)CSSC[C@@H](C(=O)O)NC(=O)[C@H](CCC(N)=O)NC(=O)[C@H](Cc2ccc(O)cc2)NC1=O` [Peptide 8, Leu-c[Cys-Pro-Gln-Leu-Tyr-Gln-Cys]] (H-LCPQLYQC-OH; disulfide 2-8) here?
Answer: The IC50 was 856 µM.

Question: What about the “cytotoxicity (in words)” value (IGROV-1 cells) of the same compound?
Answer: The value was “least active”.

Question: What about the inhibition at 500 µM [2] of the same compound?
Answer: Its inhibition at 500 µM is 38%.

Question: For `CC(C)C[C@@H]1NC(=O)[C@H](CCC(N)=O)NC(=O)[C@H](C)NC(=O)[C@@H](NC(=O)[C@@H](N)CC(C)C)CSSC[C@@H](C(=O)O)NC(=O)[C@H](CCC(N)=O)NC(=O)[C@H](Cc2ccc(O)cc2)NC1=O` [Peptide 2, Leu-c[Cys-Ala-Gln-Leu-Tyr-Gln-Cys]] (H-LCAQLYQC-OH; disulfide 2-8), which IC50 [1] is on record?
Answer: The IC50 was 900 µM.

Question: What about the “cytotoxicity (in words)” value (IGROV-1 cells) of the same compound?
Answer: The value was “least active”.

Question: What about the inhibition at 400 µM ([2]; at 400 µM and r.t. under stirring) of the same compound?
Answer: The inhibition at 400 µM was 36%.

Question: For `CC(C)C[C@@H]1NC(=O)[C@H](CCC(N)=O)NC(=O)[C@@H]2CCCN2C(=O)[C@H](CO)NC(=O)[C@@H](N)CSSC[C@@H](C(=O)O)NC(=O)[C@H](CCC(N)=O)NC(=O)[C@H](Cc2ccc(O)cc2)NC1=O` [Peptide 10] (H-CSPQLYQC-OH; disulfide 1-8), which IC50 [1] is on record?
Answer: The IC50 was 484 µM and 474 µM.

Question: What about the “cytotoxicity (in words)” value (IGROV-1 cells) of the same compound?
Answer: Its value is “intermediate cytotoxicities”.

Question: And the inhibition at 500 µM [2]?
Answer: The inhibition at 500 µM was 50%.

Question: Which “% inhibition of hTS” value [1] does the source give for `CC(C)C[C@@H]1NC(=O)[C@H](CCC(N)=O)NC(=O)[C@@H]2CCCN2C(=O)[C@@H](NC(=O)[C@@H](N)CC(C)C)CSSC[C@@H](C(=O)N[C@@H](CCC(N)=O)C(=O)N[C@@H](CCCNC(=N)N)C(=O)O)NC1=O` [Peptide 6, Leu-c[Cys-Pro-Gln-Leu-Cys]-Gln-Arg] (H-LCPQLCQR-OH; disulfide 2-6) here?
Answer: Its value is “inactive”.

Question: And the “cytotoxicity (in words)” value (IGROV-1 cells)?
Answer: Its value is “least active; also recorded: almost non-cytotoxic”.

Question: What about the “cytotoxicity (in words)” value (A2780 cells) of the same compound?
Answer: Its value is “almost non-cytotoxic”.

Question: What about the “cytotoxicity (in words)” value (A2780/CP cells) of the same compound?
Answer: The value was “almost non-cytotoxic”.

Question: And the “% inhibition of hTS” value [2]?
Answer: Its value is “inactive”.

Question: For “LSPQLYQR [[Pro^3]LR, proline mutant of LR]”, which “% inhibition of hTS” value [3] is on record?
Answer: The value was 25% at 100 µM ^c.

Question: For `CC(C)C[C@@H]1NC(=O)[C@H](CCC(N)=O)NC(=O)[C@@H]2CCCN2C(=O)[C@@H](NC(=O)[C@@H](N)CC(C)C)CSSCCNC(=O)[C@H](CCCNC(=N)N)NC(=O)[C@H](CCC(N)=O)NC(=O)[C@H](Cc2ccc(O)cc2)NC1=O` [Peptide 9, Leu-c[Cys-Pro-Gln-Leu-Tyr-Gln-Arg-CAM]] (H-LCPQLYQR-Cysteamide; disulfide 2-C), which “% inhibition of hTS” value [1] is on record?
Answer: The value was “inactive; also recorded: N.I. at 500 µM and r.t. N.I. at 500 µM and 37 °C under stirring”.

Question: And the “cytotoxicity (in words)” value (IGROV-1 cells)?
Answer: Its value is “intermediate cytotoxicities”.

Question: And the “% inhibition of hTS” value [2]?
Answer: The value was “inactive; also recorded: N.I. at 500 µM and r.t. N.I. at 500 µM and 37 °C under stirring”.

Source: PMC6804113, “Cyclic Peptides Acting as Allosteric Inhibitors of Human Thymidylate Synthase and Cancer Cell Growth” (Molecules, 2019)
